# Tests used:
# Format in all cases: cell-based
# [1] = tested on: wild type pro-B cells; experiment: Bioassay 5: pro-B cell colony formation in methylcellulose, wild type
# Method: (§1) Pro-B cells are purified by positive selection using antiCD19-magnetic beads and fluorescence activated cell sorting using the criterion: cell surface expression of B220, CD19 and cKit but not IgM. After purification, 25,000 pro-B cells are seeded onto 3.5 cm culture dishes plate containing methylcellulose (MethoCult M3630, STEM CELL technologies) for 7 days. After 7 days culture, colonies in which there were more than 50 cells are counted. Subsequently, 190,000 pro-B cells are replated into methylcellulose for another 7 days of culture, followed by enumeration.
# [2] = tested on: Wild type pre B cells; experiment: Bioassay 7: pre-B cell number dose response, wild type; settings: B-cell, 96 h; wild type Pre B cells; 4 days
# Method: Pre B cells are isolated from bone marrow according to the criterion: cell surface expression of B220, CD19, but not cKit or IgM. Pre-B cells are cultured on OP9 cells with IL7 in the presence of compounds at concentrations from 0.01 μM to 20 μM in vitro for 4 days. Cell number is then enumerated and an IC50 is calculated.
# [3] = tested on: Eμ-Myc pre-leukemia pro-B cells; experiment: Bioassay 5: pro-B cell colony formation in methylcellulose, Eμ-Myc
# Method: as §1
# [4] = tested on: Cdc6 mRNA; experiment: Bioassay 2: RT-qPCR of MOZ target genes in mouse embryonic fibroblasts; settings: 5 μM
# Method: Mouse embryonic fibroblasts are isolated from wild type or Moz heterozygous animals and cultured at 3% oxygen/5% carbon dioxide/92% nitrogen. Cells are plated at a density of 1,020 cells/cm^2 or 2,040 cells/cm^2 or 10,204 cells/cm^2. A reference value for MOZ inhibition is generated through comparison with cells with a complete null mutation of MOZ. The absence of a functional Moz gene leads to senescence in 7-14 days at 3% oxygen.
# Cells are plated in triplicate at 2,040 cells/cm^2 in the presence of a test compound. Compounds are tested at 500 nM, 1 μM, 2 μM, 5 μM, 10 μM and 20 μM. Control compounds include those that have a similar structure but show no activity in biochemical assays. […] RT-qPCR is used to assay the levels of MOZ target genes Ink4a, ink4b, Arf, Cdc6, Cdca8, Cdca2, E2f2, Ezh2, Skp2 and Melk.
# [5] = tested on: Wild type pre B cells; experiment: Bioassay 8: cell cycle analysis (DNA content and Ki67); settings: for cells in G0 / cells in G1 / cells in G2/M / cells in S: 1 μM
# Method: (§2) Pre B cells are isolated from bone marrow according to the criterion: cell surface expression of B220, CD19, but not cKit or IgM. Pre-B cells are cultured on OP9 cells with IL7 in the presence of compounds at various concentrations. The stages of the cell cycle in cultured pre-B cells with and without treatment is analysed by flow cytometry using a stain for DNA content combined with the cell cycle marker Ki67 to enumerate the proportion of cells in different phases of the cell cycle.
# [6] = tested on: Eμ-Myc pre-leukemia pre-B cells; experiment: Bioassay 6: proliferation curves of pre-B cells on OP9 feeder layer, Eμ-Myc
# Description: (§3) Pre B cells are isolated from bone marrow according to the criterion: cell surface expression of B220, CD19, but not cKit or IgM. Proliferation curves of wild type pre-B cells and Ep-Myc pre-leukemia pre B cells are generated by counting cells cultured on OP9 cell feeder layer in the presence of the growth factor IL-7. Media is changed every two days and cells are passaged every 4 days.
# [7] = tested on: mouse embryonic fibroblasts expressing KrasG12V; experiment: Bioassay 4: cumulative cell counts, KrasG12V expression; settings: for Cumulative Cell Counts: KrasG12V
# Method: (§4) To test if cells expressing mutant forms of RAS sensitized to senescence induction, MOZ inhibitors were combined with the ectopic expression of KRASG12V. Cells are plated in triplicate cultures at 10,204 cells/cm2 then transfected with control retroviral vectors pBABE or pBABE containing a mutant KrasG12V expression cassette. Cultures were maintained at 3% O2. Selection for transfected cells is achieved using puromycin. Compounds are tested at 0 μM 1 μM, 2.5 μM, and 5 μM. After 48 hours, cells are passaged and counted, then replated at 10,204/cm2. This procedure is continued for 336 hours. The total number of cells produced at each passage is then calculated and compared between treatment groups. Cellular senescence is determined by cell cycle arrest. Comparisons are between cells treated with vehicle only expressing the control vector, cells treated with 5 μM expressing the control vector (concentration shown in bioassay 1 to produce cellular senescence) and cells treated with 0 uM 1 μM, 2.5 μM, and 5 μM expressing the KrasV12 expressing vector vector
# [8] = tested on: wild type pre-B cells; experiment: Bioassay 9: cell cycle analysis (DNA content and BrdU)
# Method: as §2, with “in” for “in cultured”, “using” for “by”, “cytometry to assay,” for “cytometry”, “BrdU” for “the cell cycle marker Ki67”, “determine” for “enumerate”, “S phase.” for “different phases of the cell cycle.”
# [9] = tested on: Wild type pre B cells; experiment: Bioassay 6: proliferation curves of pre-B cells on OP9 feeder layer, wild type
# Description: as §3
# [10] = tested on: mouse embryonic fibroblasts transfected with control retroviral vector pBABE; experiment: Bioassay 4: cumulative cell counts, control vector pBABE; settings: 5 μm
# Method: as §4
smiles,measurement,setting,value
Cc1cc(-c2ccccc2)cc(C(=O)NNS(=O)(=O)c2ccccc2)c1F [Compound 36],colony number,"[1]; 1 μM, wild type pro-B cells, primary colonies",161.25
same,"colony number, secondary colony formation","[1]; 1 μM, wild type pro-B cells, secondary colony formation",12.25
same,colony formation,"[1]; in words, compared to vehicle",greatly inhibits colony formation
same,IC50,[2],364 nM
same,colony number,"[3]; 1 μM, Eμ-Myc pre-leukemia pro-B cells, primary colonies",104.625
same,"colony number, secondary colony formation","[3]; 1 μM, Eμ-Myc pre-leukemia pro-B cells, secondary colony formation",9.75
same,proliferation and secondary colony formation of cells expressing the oncogene cMyc,[3]; in words,equally effective in inhibiting proliferation and secondary colony formation
same,CDC6 mRNA % control,[4],65.1%
same,cells in G0,[5]; cultured for 4 days,14.5%
same,cells in G1,[5]; cultured for 4 days,55.9%
same,cells in G2/M,[5]; cultured for 4 days,12.7%
same,cells in S,[5]; cultured for 4 days,15.6%
same,cells in G0,[5]; cultured for 6 days,11.0%
same,cells in G1,[5]; cultured for 6 days,66.6%
same,cells in G2/M,[5]; cultured for 6 days,9.0%
same,cells in S,[5]; cultured for 6 days,8.3%
same,number of cells in S phase down-regulated,[5]; wild type pre-B cells,40%
same,cumulative average cell number,"[6]; 0.2 μM, Day 4",373055
same,cumulative average cell number,"[6]; 0.2 μM, Day 8",1110631
same,cumulative average cell number,"[6]; 0.2 μM, Day 12",464403
same,cumulative average cell number,"[6]; 0.2 μM, Day 16",81501
same,cumulative average cell number,"[6]; 1 μM, Day 4",172777
same,cumulative average cell number,"[6]; 1 μM, Day 8",135815
same,cumulative average cell number,"[6]; 1 μM, Day 12",29983
same,cumulative average cell number,"[6]; 1 μM, Day 16",0
same,cumulative average cell number,"[6]; 5 μM, Day 4",79444
same,cumulative average cell number,"[6]; 5 μM, Day 8",33236
same,cumulative average cell number,"[6]; 5 μM, Day 12",0
same,cumulative average cell number,"[6]; 5 μM, Day 16",0
same,proliferation of pre-leukaemic B cell progenitors,"[6]; in words, compared to vehicle",inhibited
same,Cumulative Cell Counts,"[7]; 1 μm, 96 h",128333.3
same,Cumulative Cell Counts,"[7]; 1 μm, 336 h",132000
same,Cumulative Cell Counts,"[7]; 2.5 μm, 96 h",141666.7
same,Cumulative Cell Counts,"[7]; 2.5 μm, 336 h",94133.33
same,Cumulative Cell Counts,"[7]; 5 μm, 96 h",126666.7
same,Cumulative Cell Counts,"[7]; 5 μm, 336 h",50940
same,cell number in the presence of mutant KRas,[7]; in words,dose dependent decrease in cell number
same,cells in G0/G1 (BrdU),[8]; 1 μM,54.9
same,cells in G2/M (BrdU),[8]; 1 μM,5.5
same,cells in S (BrdU),[8]; 1 μM,32.7
same,cells in G0/G1,[8]; in words,increase in cells in G0/G1
same,cells in S-phase,[8]; in words,reduction of cells in S-phase
same,cumulative average cell number,"[9]; 1 μM, Day 4",54333
same,cumulative average cell number,"[9]; 1 μM, Day 8",73474
same,cumulative average cell number,"[9]; 1 μM, Day 12",15097
same,cumulative average cell number,"[9]; 5 μM, Day 4",32555
same,cumulative average cell number,"[9]; 5 μM, Day 8",19925
same,cumulative average cell number,"[9]; 5 μM, Day 12",0.000
same,cumulative average cell number,"[9]; 10 μM, Day 4",26111
same,cumulative average cell number,"[9]; 10 μM, Day 8",8192
same,cumulative average cell number,"[9]; 10 μM, Day 12",0.000
same,proliferation of wild type B cell progenitors,"[9]; in words, compared to vehicle",inhibited
same,Cumulative Cell Counts,[10]; 96 h,198333.3
same,Cumulative Cell Counts,[10]; 336 h,226600
